In US8389550B2, “Isoxazoles / O-pyridines with ethyl and ethenyl linker” (Hoffmann-La Roche Inc., priority 2009, dated 2013):

Molecular target: T1, human GABA A α5 receptor (α5β3γ2) (Homo sapiens, UniProt P18507+P31644)
T1 construct: expressed in transfected cells; host or cells: HEK293 cells, transiently transfected; membranes prepared from cell pellets
Assay: [3H]flumazenil competition binding assay, HEK293 cells expressing human receptors
Details: displacement of [3H]flumazenil (0.5 nM); HEK293 cells transiently expressing human α5β3γ2; means of two determinations; read-out: hKi GABA A α5
Description: Membrane Preparation and Binding Assay
The affinity of compounds at GABA A receptor subtypes was measured by competition for [3H]flumazenil (85 Ci/mmol; Roche) binding to HEK293 cells expressing rat (stably transfected) or human (transiently transfected) receptors of composition α1β3γ2, α2β3γ2, α3β3γ2 and α5β3γ2.
Cell pellets were suspended in Krebs-tris buffer (4.8 mM KCl, 1.2 mM CaCl2, 1.2 mM MgCl2, 120 mM NaCl, 15 mM Tris; pH 7.5; binding assay buffer), homogenized by polytron for ca. 20 sec on ice and centrifuged for 60 min at 4° C. (50000 g; Sorvall, rotor: SM24=20000 rpm). The cell pellets were resuspended in Krebs-tris buffer and homogenized by polytron for ca. 15 sec on ice. Protein was measured (Bradford method, Bio-Rad) and aliquots of 1 mL were prepared and stored at −80° C.
Radioligand binding assays were carried out in a volume of […] (96-well plates) which contained […] of cell membranes, [3H]flumazenil at a concentration of 1 nM for α1, α2, α3 subunits and 0.5 nM for α5 subunits and the test compound in the range of […]. Nonspecific binding was defined by 10^−5 M diazepam and typically represented less than 5% of the total binding. Assays were incubated to equilibrium for 1 hour at 4° C. and harvested onto GF/C uni-filters (Packard) by filtration using a Packard harvester and washing with ice-cold wash buffer (50 mM Tris; pH 7.5). After drying, filter-retained radioactivity was detected by liquid scintillation counting. Ki values were calculated using Excel-Fit (Microsoft) and are the means of two determinations.
Representative test results, obtained by the above described assay measuring binding affinity to HEK293 cells expressing human (h) receptors, are shown in table 1 below: […]

Ki [µM]	SMILES
0.0139	COC(=O)c1ccc(/C=C/c2c(-c3ccccc3)noc2C)nc1 [Example 1, 6-[(E)-2-(5-Methyl-3-phenyl-isoxazol-4-yl)-vinyl]nicotinic acid methyl ester]
0.005	Cc1onc(-c2ccccc2)c1/C=C/c1ccc(C(=O)NC(C)C)cn1 [Example 2, N-Isopropyl-6-[(E)-2-(5-methyl-3-phenyl-isoxazol-4-yl)-vinyl]-nicotinamide]
0.006	Cc1onc(-c2ccccc2)c1/C=C/c1ccc(C(=O)NC2CCOCC2)cn1 [Example 3, 6-[(E)-2-(5-Methyl-3-phenyl-isoxazol-4-yl)-vinyl]-N-(tetrahydro-pyran-4-yl)-nicotinamide]
0.002	Cc1onc(-c2ccccc2)c1/C=C/c1ccc(C(=O)NCCO)cn1 [Example 4, N-(2-Hydroxy-ethyl)-6-[(E)-2-(5-methyl-3-phenyl-isoxazol-4-yl)-vinyl]-nicotinamide]
0.0029	Cc1onc(-c2ccccc2)c1/C=C/c1ccc(C(=O)NC(C)CO)cn1 (stereo not drawn) [Example 5, N-(2-Hydroxy-1-methyl-ethyl)-6-[(E)-2-(5-methyl-3-phenyl-isoxazol-4-yl)-vinyl]-nicotinamide]
0.0386	Cc1onc(-c2ccccc2)c1/C=C/c1ccc(C(=O)O)cn1 [Example 6, 6-[(E)-2-(5-Methyl-3-phenyl-isoxazol-4-yl)-vinyl]-nicotinic acid]
0.0081	CCCCc1noc(C)c1/C=C/c1ccc(C(=O)OC)cn1 [Example 7, 6-[(E)-2-(3-Butyl-5-methyl-isoxazol-4-yl)-vinyl]nicotinic acid methyl ester]
0.0186	CCCCc1noc(C)c1/C=C/c1ccc(C(=O)NC(C)C)cn1 [Example 8, 6-[(E)-2-(3-Butyl-5-methyl-isoxazol-4-yl)-vinyl]-N-isopropyl-nicotinamide]
0.0089	CCCCc1noc(C)c1/C=C/c1ccc(C(=O)NC2CCOC2)cn1 (stereo not drawn) [Example 9, 6-[(E)-2-(3-Butyl-5-methyl-isoxazol-4-yl)-vinyl]-N-(tetrahydro-furan-3-yl)-nicotinamide]
0.0082	CCCCc1noc(C)c1/C=C/c1ccc(C(=O)NC(C)CO)cn1 (stereo not drawn) [Example 10, 6-[(E)-2-(3-Butyl-5-methyl-isoxazol-4-yl)-vinyl]-N-(2-hydroxy-1-methyl-ethyl)-nicotinamide]
0.0163	CCCCc1noc(C)c1/C=C/c1ccc(C(=O)NCC(C)(C)O)cn1 [Example 11, 6-[(E)-2-(3-Butyl-5-methyl-isoxazol-4-yl)-vinyl]-N-(2-hydroxy-2-methyl-propyl)-nicotinamide]
0.0129	CCCCc1noc(C)c1/C=C/c1ccc(C(=O)NC2CCOCC2)cn1 [Example 12, 6-[(E)-2-(3-Butyl-5-methyl-isoxazol-4-yl)-vinyl]-N-(tetrahydro-pyran-4-yl)-nicotinamide]
0.0122	CCCCc1noc(C)c1/C=C/c1ccc(C(=O)N[C@H](C)CO)cn1 [Example 13, 6-[(E)-2-(3-Butyl-5-methyl-isoxazol-4-yl)-vinyl]-N—((R)-2-hydroxy-1-methyl-ethyl)-nicotinamide]
0.0141	CCCCc1noc(C)c1/C=C/c1ccc(C(=O)N[C@@H](C)CO)cn1 [Example 14, 6-[(E)-2-(3-Butyl-5-methyl-isoxazol-4-yl)-vinyl]-N—((S)-2-hydroxy-1-methyl-ethyl)-nicotinamide]
0.0053	CCCCc1noc(C)c1/C=C/c1ccc(C(=O)NC(CO)CO)cn1 [Example 15, 6-[(E)-2-(3-Butyl-5-methyl-isoxazol-4-yl)-vinyl]-N-(2-hydroxy-1-hydroxymethyl-ethyl)-nicotinamide]
0.0576	Cc1onc(-c2ccccc2)c1CCc1ccc(C(=O)NC(C)C)cn1 [Example 16, N-Isopropyl-6-[2-(5-methyl-3-phenyl-isoxazol-4-yl)-ethyl]-nicotinamide]
0.0494	CCCCc1noc(C)c1CCc1ccc(C(=O)NC(C)CO)cn1 (stereo not drawn) [Example 17, 6-[2-(3-Butyl-5-methyl-isoxazol-4-yl)-ethyl]-N-(2-hydroxy-1-methyl-ethyl)-nicotinamide]
0.0586	CCCCc1noc(C)c1CCc1ccc(C(=O)NC2CCOC2)cn1 (stereo not drawn) [Example 18, 6-[2-(3-Butyl-5-methyl-isoxazol-4-yl)-ethyl]-N-(tetrahydro-furan-3-yl)-nicotinamide]
